According to US6734177B2, “Certain salts of discodermolide acid, pharmaceutical compositions containing them and their use in treating tumors” (Novartis AG, priority 2001, dated 2004):
Where two headings read alike, the source gives them in different places.

Key:
HCT 116 colon carcinoma = assay: Anchorage Dependent Growth Monolayer Assay (ADGMA), MTT, 3-day exposure; format: cell-based; conditions: Homo sapiens, read-out: IC50 (average±S.E.M.) HCT116
Excerpt: (§1) As indicated above, all of the compounds of formula I are anti-tumor agents and are, therefore, useful in inhibiting the growth of various lymphomas, sarcomas, carcinomas, myelomas, and leukemia cell lines. […] This assay was adapted from the 60 cell line assay used by the National Cancer Institute (NCI) with the following modifications:
(§2) 1) four cell lines representative for the important tumor types, viz., MIP 101 colon carcinoma, HCT 116 colon carcinoma, 1A9 ovarian carcinoma and 1A9PTX22 ovarian carcinoma were utilized; and
(§3) 2) a tetrazolium derivative, viz., MTT, was utilized to determine cell density.
(§4) The ADGMA compares the number of viable cells following a 3-day exposure to a test compound relative to a number of cells present at the time the test compound was added. […] The absorbence at 540 nm (A540) of the formazan derivative is proportional to the number of viable cells. The IC50 for a test compound is the concentration of compound required to reduce the final cell number to 50% of the final control cell number. If cell proliferation is inhibited, the assay further defines compounds as cytostatic (cell number after 3-day compound incubation>cell number at time of compound addition) or cytotoxic (cell number after 3-day compound incubation<cell number at time of compound addition).
(§5) The HCT 116 colon carcinoma cell line was obtained from the American Type Culture Collection (ATCC, Rockville, Md.). The MIP 101 colon carcinoma was obtained from Dr. Robert Kramer (Bristol Meyers Squibb) and was previously described (Niles R M, Wilhelm S A, Steele G D JR, Burke B, Christensen T, Dexter D, O'Brien M J, Thomas P, Zamcheck N. Isolation and characterization of an undifferentiated human colon carcinoma cell line (MIP-101). Cancer Invest. 1987;5(6):545-52.). The 1A9 and the 1A9PTX22 ovarian tumor cell lines were obtained from Dr. Tito Fojo, Medicine Branch, Division of Clinical Sciences, National Cancer Institute, National Institutes of Health, Bethesda, Md. 20892. The 1A9 is a clone of the ovarian carcinoma cell line, A2780 (Giannakakou P, Sackett, D L, Kang Y -K, Zhan Z, Buters J T M, Fojo T, Poruchynsky M S. Paclitaxel-resistant human ovarian cancer cells have mutant β-tubulins that impaired paclitaxel-driven polymerization. J. Biol. Chem. 1997, 272(4):17118-17125). The 1A9PTX22 subline was isolated as an individual clone from the 1A9 cell line in a single step selection by exposure to 5 ng/mL paclitaxel in the presence of 5 μg/mL of verapamil. All cell lines were used between passages 4-20 following thawing. MIP 101 colon carcinoma, HCT 116 colon carcinoma, 1A9 ovarian carcinoma and 1A9PTX22 ovarian carcinoma cell lines are maintained and plated in RPMI 1640 medium containing 10% fetal bovine serum.
(§6) Cells are trypsinized and counted using hemacytometer to determine cell concentrations. Cells were then plated in their respective maintenance media (200 μL/well) in 96-well plates at the following concentrations: MIP 101, 2000 cells/well, HCT 116, 2000 cells/well, 1A9, 10000 cells/well, and 1A9PTX22, 10000 cells/well. […] Initial cell densities, assayed one day after plating, are roughly 0.10-0.20 A540 absorbence units greater than the media blank. Ninety six well plates were seeded on day 0 and the test compounds are added on day 1. A “time 0” plate was created that received media only in row A and one cell line/row in rows B-E. The “time 0” plate was processed 24 hours after plating (at the time when drugs were added to experimental plates), as follows: To each well 5 microliters of the MTT stock solution (0.5 mg/ml in PBS) was added to each well and then incubated for three hours at 37 degrees C., 5% CO2, in a humidified environment. Media was then carefully and completely removed. Plates were allowed to dry in the dark. DMSO (dimethylsulfoxide) was added to each well (100 μl/well) and plates were placed on an orbital shaker for 2 hours. […]

1A9 ovarian carcinoma = assay: as above; format: cell-based; conditions: Homo sapiens, read-out: IC50 (average±S.E.M.) 1A9
Excerpt: as §1, §2, §3, §4, §5, §6

MIP 101 colon carcinoma = assay: as above; format: cell-based; conditions: Homo sapiens, 72 h, read-out: IC50 (average±S.E.M.) MIP101
Excerpt: as §1, §2, §3, §4, §5, §6

[1] = system: 1A9PTX22 ovarian carcinoma; assay: as above; format: cell-based; conditions: Homo sapiens, 1A9/ptx-22, 72 h, read-out: IC50 (average±S.E.M.) 1A9PTX22
Excerpt: as §1, §2, §3, §4, §5, §6

[2] = Body weight change of athymic nude mice in the hollow fiber model; format: in vivo; conditions: Paclitaxel 15 mg/kg i.v. daily for 5 days, Ex. 1 45 mg/kg i.v. once; for Δ Mean % Body Weight, Exp. 1: Experiment 1; for Δ Mean % Body Weight, Exp. 2: Experiment 2
Method: Outbred athymic (nu/nu) female mice (“Chrls:Athymic Nude-nu”, Charles River Laboratories, Wilmington, Mass.) were anesthetized with ip injections of Ketamine/Xylazine (150 mg/kg, and 12 mg/kg body weight, respectively). For the subcutaneous implantation an 11-gauge trocar containing one or two hollow fibers was inserted through an incision made with scissors at the nape of the neck of an animal, and fibers were released by retracting the trocar while depressing the plunger. This procedure was repeated until all four hollow fibers were implanted. One wound clip was used to close the skin incision. After the surgery each animal received a single, subcutaneous injection of 0.4 mg/kg butorphenol to relieve any potential pain. Animals recovered from the anesthesia on a heating pad, before returning to their cages.
One day after the implantation (4 hollow fibers/animal, each hollow fiber containing one cell line: HCT 116, MIP 101, 1A9, and 1A9PTX22) animals were randomly sorted into five groups of six mice/group. The first group was sacrificed, hollow fibers were retrieved, and processed according to a published procedure, to determine the number of viable cells in each fiber (T0.)
The remaining groups were treated as follows:
Group 1: Example 1, 45 mg/kg, iv, once.
Group 2: Vehicle for Example 1 (16.7% Cremophor EL, 8.3% ethanol, 75% D5W), iv, once.
Group 3: Paclitaxel, 15 mg/kg, iv, daily for 5 days.
Group 4: Vehicle for paclitaxel (12.5% Cremophor EL, 12.5% ethanol, 75% D5W) iv, daily for 5 days.
On day 7 all animals were sacrificed, and hollow fibers were retrieved and processed according to a published procedure, to determine the number of viable cells in each fiber (T—for fibers from animals treated with experimental compounds, C—for fibers from animals treated with corresponding vehicles). Antitumor activity was expressed as % Mean ΔT/Mean ΔC [comparing cell growth for treatment group to vehicle control group, where % Mean ΔT/Mean ΔC=(Mean T−Mean T0/Mean C−Mean T0)×100%]. Regressions were calculated using the formula: (1−Mean T/Mean T0)×100%. Statistical significance of the results was uniformly evaluated using a two-tailed Student's t-test, as recommended by a statistician, following analysis of our representative experiments (Colin Goodal, statistical consultant to Novartis, personal communication).

1A9PTX22 cell line = conditions: 1A9PTX22 vs parental 1A9; cited from earlier work

Row | SMILES | IC50 (HCT 116 colon carcinoma; HCT-116, 72 h) [nM] | IC50 (1A9 ovarian carcinoma; 1A9, 72 h) [nM] | IC50 (MIP 101 colon carcinoma) [nM] | IC50 [1] [nM] | Δ Mean % Body Weight, Exp. 1 [2] | Δ Mean % Body Weight, Exp. 2 [2] | Resistance to paclitaxel of 1A9PTX22 relative to parental 1A9 (1A9PTX22 cell line) [fold] | IC50 (HCT 116 colon carcinoma; 72 h, HCT 116 cells, 3-day exposure, MTT) [nM] | IC50 (1A9 ovarian carcinoma; 72 h, 1A9 cells, 3-day exposure, MTT) [nM] | IC50 (MIP 101 colon carcinoma; MIP 101 cells, 3-day exposure, MTT) [nM] | IC50 ([1]; 1A9PTX22 cells, 3-day exposure, MTT) [nM]
1 | C=C/C=C\[C@H](C)[C@H](OC(N)=O)[C@@H](C)[C@@H](O)[C@@H](C)C/C(C)=C\[C@H](C)[C@@H](O)[C@@H](C)/C=C\[C@@H](O)C[C@H](O)[C@H](C)[C@H](O)[C@@H](C)C(=O)[O-].[Na+] [Ex. 1, (2R,3S,4S,5S,7S,8Z,10S,11S,12S,13Z,16S,17S,18S,19S,20S,21Z)-19-[(aminocarbonyl)oxy]-3,5,7,11,17-pentahydroxy-2,4,10,12,14,16,18,20-octamethyl-8,13,21,23-tetracosatetraenoic acid, sodium salt] | 50 ± 20 | 100 ± 40 | 300 ± 10 | 200 ± 90 | Exp. 1: None | Exp. 2: None | – | – | – | – | –
2 | CC(=O)O[C@H]1C(=O)[C@@]2(C)[C@H]([C@H](OC(=O)c3ccccc3)[C@]3(O)C[C@H](OC(=O)[C@H](O)[C@@H](NC(=O)c4ccccc4)c4ccccc4)C(C)=C1C3(C)C)[C@]1(OC(C)=O)CO[C@@H]1C[C@@H]2O [paclitaxel] | – | – | – | – | Exp. 1: None | Exp. 2: None | 24 | 0.3 ± 0.2 | 47 ± 7 | 200 ± 60 | 1 ± 1
